Tests used:
DGKα = DGKα (Homo sapiens, UniProt P23743); assay: DGK assay on OST-DGKα enriched MDCK homogenates; format: biochemical; design: expressed in transfected cells; host or cells: MDCK cells (vector-infected, doxycycline-induced), crude homogenate; conditions: for remaining activity at 100 µM: percentage of residual DGKα activity compared to DMSO control, OST-DGKα overexpressing cell lysates, saturating DAG and ATP, read-out: Residue activity at 100 µM; for IC50: residual OST-DGKα activity at 0.1, 1.0, 10.0 and 100.0 µM
Sequence of DGKα (P23743 whole entry): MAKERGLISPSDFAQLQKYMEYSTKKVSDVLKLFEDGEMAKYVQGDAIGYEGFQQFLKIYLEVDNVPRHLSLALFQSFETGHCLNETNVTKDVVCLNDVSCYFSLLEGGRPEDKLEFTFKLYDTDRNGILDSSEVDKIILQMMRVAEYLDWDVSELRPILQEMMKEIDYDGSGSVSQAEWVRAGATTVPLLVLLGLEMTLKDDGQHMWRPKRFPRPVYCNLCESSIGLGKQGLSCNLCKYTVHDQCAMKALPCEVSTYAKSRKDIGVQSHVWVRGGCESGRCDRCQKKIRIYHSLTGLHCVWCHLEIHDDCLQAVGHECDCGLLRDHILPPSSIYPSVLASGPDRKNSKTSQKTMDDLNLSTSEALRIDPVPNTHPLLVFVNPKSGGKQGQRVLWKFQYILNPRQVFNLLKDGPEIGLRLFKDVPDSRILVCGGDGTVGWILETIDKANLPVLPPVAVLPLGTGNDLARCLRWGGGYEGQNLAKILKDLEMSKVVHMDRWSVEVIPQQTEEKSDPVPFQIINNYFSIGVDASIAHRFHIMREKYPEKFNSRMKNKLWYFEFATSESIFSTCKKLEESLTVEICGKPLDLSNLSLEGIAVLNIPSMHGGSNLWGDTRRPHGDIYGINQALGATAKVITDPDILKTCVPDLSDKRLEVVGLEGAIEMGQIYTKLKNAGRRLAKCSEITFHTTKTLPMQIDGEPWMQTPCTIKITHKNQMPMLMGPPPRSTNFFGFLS
Method: Madin-Darby canine kidney (MDCK) cells stably expressing One Strep Tag DGKα (OST-DGKα) were prepared by infecting MDCK cells with a vector expressing an inducible OST tagged DGKα constructs. MDCK cells infected with empty vector were used as controls. MDCK cells were cultured in MEM (minimal essential medium) with 5% FBS (foetal bovine serum) and 1% antibiotic–antimycotic solution. Routinely, cells were splitted every 3–4 days with trypsin–EDTA 0.25% in standard 100 mm dishes.
Large cultures of MDCK cells for enzyme preparation were done by plating 5 × 10^6 cells in 245 mm^2 dishes. Once they reached nearly 70% confluence, cells were treated with doxycycline (1 µg/mL, two days). […] Cells were collected with a rubber scraper, homogenised by passing them through a 29 G-needle syringe 20 times and stored in aliquots at –80 °C. Presence of OST-DGKα was confirmed by western blotting and enzyme assay, transduced DGKα has an activity >100 folds the endogenous DGK.
Essentionally, the same procedure was followed as reported previously in Velnati et al.[9] In brief, DGK activity was assayed by measuring initial velocities (5 min at 27 °C) in presence of saturating substrate concentrations. Reaction conditions: 0.9 µg/µL 1,2-dioleoyl-sn-glycerol, 5 mM ATP, 0.01 µCi/µL [γ^32P]-ATP, 1 mM sodium orthovanadate, 10 mM MgCl2, 1.2 mM EGTA in 7.5 mM Hepes pH 8[12]. Reaction mixture is assembled mixing enzyme (24.5 µL of homogenate), 100× inhibitor or DMSO (0.5 µL), 5× ATP solution (10 µL of 25 mM ATP, 0.05 µCi/µL [γ^32P]-ATP (Perkin-Elmer, Milan, Italy), 5 mM sodium orthovanadate, 50 mM MgCl2), and 3.3× DAG solution (15 µL of 3 µg/µL 1,2-dioleoyl-sn-glycerol resuspended by sonication in 4 mM EGTA in 25 mM Hepes pH 8). The reaction was stopped after 5 min by adding 200 µL of freshly prepared 1 M HCl and lipid was extracted by adding 200 µL of CH3OH:CHCl3 1:1 solution and vortexing for 1 min. The two phases were separated by centrifugation (12,000 RCF for 2 min). Twenty-five microlitres of the lower organic phase was spotted in small drops on silica TLC plates. TLC was run 10 cm and dried before radioactive signals were detected by GS-250 molecular imager and was quantified by quantity one (Bio-Rad, Hercules, CA) software assuring the absence of saturated spots.
Percentage residual activity was calculated as follows: (OST-DGKα homogenate with inhibitor – vector homogenate)/(OST-DGKα homogenate with DMSO – vector homogenate)×100.
Data for the screen on OST-DGKα homogenates are the mean of duplicates. The compounds showing inhibitory activity in this assay were tested >4 times and the mean ± SEM is reported.
To calculate IC50 values of active inhibitors, the inhibitor activity was measured at least three times at 0.1, 1.0, 10.0, and 100.0 µM concentration. Data were analysed using [inhibitor] vs. normalised response parameters with least square [ordinary] curve fitting method in GraphPad PRISM 8.0 software (GraphPad Software, La Jolla, CA) mentioning 95% confidence interval and IC50 values always greater than 0.0. […] In all the experiments, the data were normalised with the controls.
Each inhibitor was tested in duplicate at least once, and DGKα activity was expressed as percentage of residual DGKα activity compared to DMSO control in the same assay. Assay uses OST-DGKα overexpressing cell lysates in presence of saturating exogenous DAG and ATP. We considered R59022 (commercially available) and the lead compound Amb63975230 as our reference molecules.
To measure the inhibitor potency, we determined the IC50 values for the compounds that resulted active when tested at 100 µM by measuring the residual OST-DGKα activity over a dose range of inhibitor concentrations (0.1 µM, 1.0 µM, 10.0 µM, and 100.0 µM).

SAP-deficient T cells = assay: RICD assay in SAP silenced T cells; format: cell-based, human; conditions: 10 µM, 30 min pre-treatment; OKT3 10 ng/mL, 24 h
Method: PBL were isolated from healthy anonymous human donors by Ficoll-Paque PLUS (GE Healthcare, Chicago, IL) density gradient centrifugation, washed, and resuspended at 2 × 10^6 cell/mL in RPMI-GlutaMAX containing 10% heat inactivated FCS, 2 mM glutamine, and 100 U/mL of penicillin and streptomycin. T cells were activated with 1 µg/mL anti-CD3 (UCHT1) and anti-CD28 (clone CD28.2) antibodies. After three days, activated T cells were washed and cultured in medium additionated of 100 IU/mL rhIL-2 (Peprotech, Rocky Hill, NJ) at 1.2 × 10^6 cells/mL for ≥7 days by changing media for every 2–3 days.
Activated human PBLs were transfected with 200 pmol of siRNA oligonucleotides specific for the target protein (Stealth Select siRNA; Life Technologies, Carlsbad, CA) or a non-specific control oligo (Life Technologies, Carlsbad, CA). Transient transfections were performed using Amaxa nucleofector kits for human T cells (Lonza, Basel, Switzerland) and the Amaxa Nucleofector II or 4D systems (programmes T-20 or EI-115). Cells were cultured in IL-2 (100 IU/mL) for four days to allow target gene knockdown. Knockdown efficiency was periodically evaluated by Western blotting.
To test restimulation induced cell death, activated T cells (10^5 cells/well) were plated in triplicate in 96-well round-bottom plate and treated with anti-CD3 (clone OKT3) (10 ng/mL) in RPMI-GlutaMAX supplemented with 100 IU/mL rhIL-2 for 24 h. In these assays, inhibitors (10 µM) were added 30 min before the restimulation with OKT3. 24 h after treatment, cells were stained with 20 ng/mL propidium iodide and collected for a constant time of 30 s per sample on Attune Nxt Flow Cytometer (Thermo Fisher Scientific, Waltham, MA). Cell death is expressed as % cell loss and calculated as: % cell loss=(1−(number of viable cells in sample/number of viable cells in control)×100)
Results were expressed as mean ± standard error of the mean (SEM). We always compared controls and SAP silenced lymphocytes from the same donors as there is a large individual variability in RICD sensitivity.
To evaluate inhibitor efficacy in physiological context, we modelled XLP-1 by silencing SAP in primary peripheral blood T lymphocytes (PBLs) and restimulating them with anti-CD3 antibody (OKT3 10 ng/mL, 24 h). We pre-treated the cells with the indicated inhibitors for 30 min at a concentration of 10 µM[8].
Figure 9. DGKα inhibitors partially restores apoptosis in SAP deficient lymphocytes. […] After 4 days, the cells were restimulated with CD3 agonist OKT3 (10 ng/mL) in presence of respective inhibitor. Vehicle (DMSO) was used as control. Twenty-four hours later, the % of cell loss was evaluated by PI staining. Data are the mean ± SEM of nine independent experiments performed in triplicate.

| SMILES | remaining activity at 100 µM (DGKα) | melting point | further results |
| --- | --- | --- | --- |
| Cn1c(-c2ccccc2)c(C(=O)CN2CCN(C(=O)c3ccco3)CC2)c2ccccc21 [Amb18718] | 135% |  |  |
| Cc1[nH]c2ccccc2c1C(=O)C(C)N1CCN(C(=O)c2ccccc2)CC1 (centres unmarked) [Amb37496] | 114% |  |  |
| CC(C(=O)c1c[nH]c2ccccc12)N1CCN(C(=O)c2ccco2)CC1 (centres unmarked) [Amb626577] | 127% |  |  |
| COc1ccc2[nH]cc(C(=O)CN3CCN(C(=O)c4ccco4)CC3)c2c1 [Amb629700] | 101% |  |  |
| COc1ccc2[nH]c(C)c(C(=O)CN3CCN(C(=O)c4ccco4)CC3)c2c1 [Amb687392] | 115% |  |  |
| COc1ccc2c(C(=O)CN3CCN(C(=O)c4ccco4)CC3)c(C)n(C)c2c1 [Amb726054] | 126% |  |  |
| Cc1ccc2[nH]cc(C(=O)CN3CCN(C(=O)c4ccco4)CC3)c2c1 [Amb758592] | 150% |  |  |
| O=c1c2ccccc2[nH]c(=S)n1CCC1CCC(=C(c2ccc(F)cc2)c2ccc(F)cc2)CC1 (centres unmarked) [Compound 1] |  |  | inhibitory activity on the enzyme (DGKα) (DGKα): totally devoid of inhibitory activity |
| O=C(CN1CCN(C(=O)c2ccco2)CC1)c1c[nH]c2ccccc12 [Compound 2] | 135% |  |  |
| Cc1ccc2c(C(=O)CN3CCN(C(=O)c4ccccc4)CC3)c(C)[nH]c2c1 [Compound 8, 2-(4-Benzoylpiperazin-1-yl)-1-(2,6-dimethyl-1H-indol-3-yl)ethan-1-one] | 5% | 213.8 to 214.3 °C | IC50 (DGKα): 3.2 µM |
| COc1ccc(C(=O)N2CCN(CC(=O)c3c(C)[nH]c4cc(C)ccc34)CC2)cc1 [Compound 12, 1-(2,6-Dimethyl-1H-indol-3-yl)-2-(4-(4-methoxybenzoyl)piperazin-1-yl)ethan-1-one] | 6% | 219.9 to 220.8 °C | IC50 (DGKα): 3.6 µM |
| Cc1ccc2c(C(=O)CN3CCN(C(=O)c4ccc(C#N)cc4)CC3)c(C)[nH]c2c1 [Compound 13, 4-(4-(2-(2,6-Dimethyl-1H-indol-3-yl)-2-oxoethyl)piperazine-1-carbonyl)benzonitrile] | 14% | 243.9 to 244.8 °C | IC50 (DGKα): 6.9 µM |
| Cc1ccc2c(C(=O)CN3CCN(C(=O)c4cccs4)CC3)c(C)[nH]c2c1 [Compound 14, 1-(2,6-Dimethyl-1H-indol-3-yl)-2-(4-(thiophene-2-carbonyl)piperazin-1-yl)ethan-1-one] | 6% |  | effect on RICD in control siRNA-transfected cells (SAP-deficient T cells): slightly reducing; IC50 (DGKα): 3 µM |
| Cc1ccc2c(C(=O)CN3CCN(C(=O)c4ccccc4C)CC3)c(C)[nH]c2c1 [Compound 16, 1-(2,6-Dimethyl-1H-indol-3-yl)-2-(4-(2-methylbenzoyl)piperazin-1-yl)ethan-1-one] | 27% | 200.5 to 201.6 °C | IC50 (DGKα): 32.8 µM |
| Cc1ccc2c(C(=O)CN3CCN(C(=O)c4ccc(F)c(F)c4)CC3)c(C)[nH]c2c1 [Compound 18, 2-(4-(3,4-Difluorobenzoyl)piperazin-1-yl)-1-(2,6-dimethyl-1H-indol-3-yl)ethan-1-one] | 47% | 233.8 to 235 °C |  |
| Cc1ccc2c(C(=O)CN3CCN(C(=O)c4cccc(Cl)c4)CC3)c(C)[nH]c2c1 [Compound 19, 2-(4-(3-Chlorobenzoyl)piperazin-1-yl)-1-(2,6-dimethyl-1H-indol-3-yl)ethan-1-one] | 26% | 222.3 to 223.5 °C | IC50 (DGKα): 49.7 µM |
| Cc1ccc2c(C(=O)CN3CCN(C(=O)C4CCCC4)CC3)c(C)[nH]c2c1 [Compound 21, 2-(4-(Cyclopentanecarbonyl)piperazin-1-yl)-1-(2,6-dimethyl-1H-indol-3-yl)ethan-1-one] | 39% |  |  |
| CCCCCCC(=O)N1CCN(CC(=O)c2c(C)[nH]c3cc(C)ccc23)CC1 [Compound 22, 1-(4-(2-(2,6-Dimethyl-1H-indol-3-yl)-2-oxoethyl)piperazin-1-yl)heptan-1-one] | 48% |  |  |

Further lines, with some results ahead:

| remaining activity at 100 µM (DGKα) | melting point | SMILES | further results |
| --- | --- | --- | --- |
| 196% |  | O=C(c1c[nH]c2ccccc12)C(c1ccccc1)N1CCN(C(=O)c2ccco2)CC1 (centres unmarked) [Amb94966] |  |
| 81% |  | O=C(CN1CCN(C(=O)c2ccco2)CC1)c1c(-c2ccccc2)[nH]c2ccccc12 [Amb98433] |  |
| 130% |  | Cc1c(C(=O)CN2CCN(C(=O)c3ccco3)CC2)c2ccccc2n1C [Amb731111] |  |
| 67% |  | Cc1ccc2c(C(=O)C(C)N3CCN(C(=O)c4ccco4)CC3)c(C)[nH]c2c1 (centres unmarked) [Amb758897] |  |
| 88% |  | Cc1[nH]c2ccccc2c1C(=O)C(c1ccccc1)N1CCN(C(=O)c2ccco2)CC1 (centres unmarked) [Amb1926062] |  |
| 160% |  | Cc1[nH]c2c(C)ccc(C)c2c1C(=O)CN1CCN(C(=O)c2ccco2)CC1 [Amb22018852] |  |
| 89% | 216.2 to 216.8 °C | Cc1ccc2c(C(=O)CN3CCN(C(=O)c4cccnc4)CC3)c(C)[nH]c2c1 [Compound 15, 1-(2,6-Dimethyl-1H-indol-3-yl)-2-(4-nicotinoylpiperazin-1-yl)ethan-1-one] |  |
| 41% | 209.8 to 210.4 °C | COc1cccc(C(=O)N2CCN(CC(=O)c3c(C)[nH]c4cc(C)ccc34)CC2)c1 [Compound 17, 1-(2,6-Dimethyl-1H-indol-3-yl)-2-(4-(3-methoxybenzoyl)piperazin-1-yl)ethan-1-one] |  |
